Data as given in ChEMBL document CHEMBL1201862, “PubChem BioAssay data set” (2004).
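In this assay, cells in 96-well plates receive the compound at five concentrations for 48 hours. Endpoints are linearly interpolated between the surrounding concentrations. At the GI50, growth is halved.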 Activity calls are given as the source filed them. Cut-off read from the data, not from the text of the source: active = GI50 up to about 1.1 µM and inactive = higher.

Legend:
Assay in all cases: NCI-60 cell line screen, 48 h
UACC-257 = system: UACC-257
EKVX = system: EKVX
SK-OV-3 = system: SK-OV-3
HCC 2998 = system: HCC 2998
HT-29 = system: HT-29
SF-539 = system: SF-539
DMS-273 = system: DMS-273
TK-10 = system: TK-10
Malme-3M = system: Malme-3M
NCI-H522 = system: NCI-H522
U-251 = system: U-251
CCRF-CEM = system: CCRF-CEM
RXF 631 = system: RXF 631
SK-MEL-28 = system: SK-MEL-28
SF-268 = system: SF-268
DLD-1 = system: DLD-1
KM-20L2 = system: KM-20L2
OVCAR-3 = system: OVCAR-3
COLO 205 = system: COLO 205
786-0 = system: 786-0
CAKI-1 = system: CAKI-1
NCI-H23 = system: NCI-H23
HCT-116 = system: HCT-116
DMS-114 = system: DMS-114
NCI-H226 = system: NCI-H226
K562 = system: K562
SNB-75 = system: SNB-75
LOX IMVI = system: LOX IMVI
ACHN = system: ACHN
NCI-H460 = system: NCI-H460
M14 = system: M14
SK-MEL-2 = system: SK-MEL-2
LXFL 529 = system: LXFL 529
HCT-15 = system: HCT-15
KM12 = system: KM12
IGROV-1 = system: IGROV-1
SW-620 = system: SW-620
HOP-92 = system: HOP-92
SF-295 = system: SF-295
OVCAR-8 = system: OVCAR-8
A549 = system: A549
OVCAR-5 = system: OVCAR-5
XF498 = system: XF498
UACC-62 = system: UACC-62
SN12C = system: SN12C
RXF 393 = system: RXF 393
UO-31 = system: UO-31
MOLT-4 = system: MOLT-4
SNB-19 = system: SNB-19
SK-MEL-5 = system: SK-MEL-5
SR = system: SR
RPMI-8226 = system: RPMI-8226
HL-60 = system: HL-60
M19-MEL = system: M19-MEL
OVCAR-4 = system: OVCAR-4
A498 = system: A498
HOP-18 = system: HOP-18
SNB-78 = system: SNB-78
HOP-62 = system: HOP-62

**Q.** For C=C(CS(=O)(=O)c1ccccc1)C(=O)OCC, which GI50 (UACC-257) is on record?
**A.** 12.8 µM (inactive)

**Q.** What about the GI50 (EKVX) of the same compound?
**A.** 19.7 µM (inactive)

**Q.** What about the GI50 (SK-OV-3) of the same compound?
**A.** 14.4 µM (inactive)

**Q.** What about the GI50 (HCC 2998) of the same compound?
**A.** 19.4 µM (inactive)

**Q.** What about the GI50 (HT-29) of the same compound?
**A.** 11.2 µM (inactive)

**Q.** What about the GI50 (SF-539) of the same compound?
**A.** 17.1 µM (inactive)

**Q.** What about the GI50 (DMS-273) of the same compound?
**A.** 16.4 µM (inactive)

**Q.** And the GI50 (TK-10)?
**A.** 17.4 µM (inactive)

**Q.** What about the GI50 (Malme-3M) of the same compound?
**A.** 16.1 µM (inactive)

**Q.** What about the GI50 (NCI-H522) of the same compound?
**A.** 3.41 µM (inactive)

**Q.** What about the GI50 (U-251) of the same compound?
**A.** 16.9 µM (inactive)

**Q.** What about the GI50 (CCRF-CEM) of the same compound?
**A.** 2.77 µM (inactive)

**Q.** And the GI50 (RXF 631)?
**A.** 1.9 µM (inactive)

**Q.** And the GI50 (SK-MEL-28)?
**A.** 15.1 µM (inactive)

**Q.** And the GI50 (SF-268)?
**A.** 19.6 µM (inactive)

**Q.** What about the GI50 (DLD-1) of the same compound?
**A.** 4.49 µM (inactive)

**Q.** What about the GI50 (KM-20L2) of the same compound?
**A.** 21.8 µM (inactive)

**Q.** What about the GI50 (OVCAR-3) of the same compound?
**A.** 13.4 µM (inactive)

**Q.** What about the GI50 (COLO 205) of the same compound?
**A.** 18.9 µM (inactive)

**Q.** What about the GI50 (786-0) of the same compound?
**A.** 17.3 µM (inactive)

**Q.** What about the GI50 (CAKI-1) of the same compound?
**A.** 18 µM (inactive)

**Q.** What about the GI50 (NCI-H23) of the same compound?
**A.** 18.2 µM (inactive)

**Q.** And the GI50 (HCT-116)?
**A.** 13.4 µM (inactive)

**Q.** What about the GI50 (DMS-114) of the same compound?
**A.** 5.37 µM (inactive)

**Q.** What about the GI50 (NCI-H226) of the same compound?
**A.** 25.1 µM (inactive)

**Q.** And the GI50 (K562)?
**A.** 5.33 µM (inactive)

**Q.** And the GI50 (SNB-75)?
**A.** 17.4 µM (inactive)

**Q.** And the GI50 (LOX IMVI)?
**A.** 10.5 µM (inactive)

**Q.** And the GI50 (ACHN)?
**A.** 15.5 µM (inactive)

**Q.** And the GI50 (NCI-H460)?
**A.** 18.7 µM (inactive)

**Q.** And the GI50 (M14)?
**A.** 11.6 µM (inactive)

**Q.** What about the GI50 (SK-MEL-2) of the same compound?
**A.** 15.6 µM (inactive)

**Q.** And the GI50 (LXFL 529)?
**A.** 13.4 µM (inactive)

**Q.** What about the GI50 (HCT-15) of the same compound?
**A.** 12.6 µM

**Q.** What about the GI50 (KM12) of the same compound?
**A.** 16.1 µM (inactive)

**Q.** And the GI50 (IGROV-1)?
**A.** 19 µM (inactive)

**Q.** What about the GI50 (SW-620) of the same compound?
**A.** 10.5 µM (inactive)

**Q.** And the GI50 (HOP-92)?
**A.** 21.4 µM (inactive)

**Q.** What about the GI50 (SF-295) of the same compound?
**A.** 18.1 µM (inactive)

**Q.** What about the GI50 (OVCAR-8) of the same compound?
**A.** 10.5 µM (inactive)

**Q.** What about the GI50 (A549) of the same compound?
**A.** 18.5 µM (inactive)

**Q.** What about the GI50 (OVCAR-5) of the same compound?
**A.** 19.6 µM (inactive)

**Q.** And the GI50 (XF498)?
**A.** 19.2 µM (inactive)

**Q.** And the GI50 (UACC-62)?
**A.** 4.74 µM (inactive)

**Q.** And the GI50 (SN12C)?
**A.** 16.3 µM (inactive)

**Q.** And the GI50 (RXF 393)?
**A.** 11.7 µM (inactive)

**Q.** What about the GI50 (UO-31) of the same compound?
**A.** 20 µM (inactive)

**Q.** What about the GI50 (MOLT-4) of the same compound?
**A.** 2.81 µM (inactive)

**Q.** And the GI50 (SNB-19)?
**A.** 20 µM (inactive)

**Q.** With COc1ccc([C@@H]2CC(=O)NCCCCNCCCN2)cc1 as the compound, how does the GI50 (UACC-257) read?
**A.** > 100 µM (inactive)

**Q.** What about the GI50 (SK-MEL-5) of the same compound?
**A.** > 100 µM (inactive)

**Q.** What about the GI50 (EKVX) of the same compound?
**A.** > 100 µM (inactive)

**Q.** And the GI50 (SK-OV-3)?
**A.** > 100 µM (inactive)

**Q.** What about the GI50 (HCC 2998) of the same compound?
**A.** 0.0131 µM (active)

**Q.** What about the GI50 (HT-29) of the same compound?
**A.** > 100 µM (inactive)

**Q.** And the GI50 (SF-539)?
**A.** > 100 µM (inactive)

**Q.** And the GI50 (DMS-273)?
**A.** > 100 µM (inactive)

**Q.** What about the GI50 (SR) of the same compound?
**A.** > 100 µM (inactive)

**Q.** What about the GI50 (TK-10) of the same compound?
**A.** > 100 µM (inactive)

**Q.** What about the GI50 (RPMI-8226) of the same compound?
**A.** > 100 µM (inactive)

**Q.** What about the GI50 (Malme-3M) of the same compound?
**A.** > 100 µM (inactive)

**Q.** What about the GI50 (NCI-H522) of the same compound?
**A.** > 100 µM (inactive)

**Q.** And the GI50 (U-251)?
**A.** > 100 µM (inactive)

**Q.** And the GI50 (CCRF-CEM)?
**A.** > 100 µM (inactive)

**Q.** And the GI50 (SK-MEL-28)?
**A.** > 100 µM (inactive)

**Q.** And the GI50 (HL-60)?
**A.** > 100 µM (inactive)

**Q.** And the GI50 (SF-268)?
**A.** > 100 µM (inactive)

**Q.** And the GI50 (DLD-1)?
**A.** > 100 µM (inactive)

**Q.** And the GI50 (KM-20L2)?
**A.** > 100 µM (inactive)

**Q.** What about the GI50 (COLO 205) of the same compound?
**A.** > 100 µM (inactive)

**Q.** And the GI50 (786-0)?
**A.** > 100 µM (inactive)

**Q.** What about the GI50 (CAKI-1) of the same compound?
**A.** > 100 µM (inactive)

**Q.** What about the GI50 (NCI-H23) of the same compound?
**A.** > 100 µM (inactive)

**Q.** What about the GI50 (M19-MEL) of the same compound?
**A.** > 100 µM (inactive)

**Q.** What about the GI50 (HCT-116) of the same compound?
**A.** > 100 µM (inactive)

**Q.** What about the GI50 (OVCAR-4) of the same compound?
**A.** > 100 µM (inactive)

**Q.** What about the GI50 (DMS-114) of the same compound?
**A.** > 100 µM (inactive)

**Q.** What about the GI50 (NCI-H226) of the same compound?
**A.** > 100 µM (inactive)

**Q.** And the GI50 (K562)?
**A.** > 100 µM (inactive)

**Q.** What about the GI50 (SNB-75) of the same compound?
**A.** > 100 µM (inactive)

**Q.** What about the GI50 (ACHN) of the same compound?
**A.** > 100 µM (inactive)

**Q.** What about the GI50 (NCI-H460) of the same compound?
**A.** > 100 µM (inactive)

**Q.** What about the GI50 (M14) of the same compound?
**A.** > 100 µM (inactive)

**Q.** And the GI50 (SK-MEL-2)?
**A.** > 100 µM (inactive)

**Q.** And the GI50 (LXFL 529)?
**A.** > 100 µM (inactive)

**Q.** What about the GI50 (HCT-15) of the same compound?
**A.** > 100 µM

**Q.** And the GI50 (KM12)?
**A.** > 100 µM (inactive)

**Q.** And the GI50 (IGROV-1)?
**A.** > 100 µM (inactive)

**Q.** And the GI50 (SW-620)?
**A.** > 100 µM (inactive)

**Q.** What about the GI50 (HOP-92) of the same compound?
**A.** > 100 µM (inactive)

**Q.** What about the GI50 (SF-295) of the same compound?
**A.** > 100 µM (inactive)

**Q.** What about the GI50 (OVCAR-8) of the same compound?
**A.** > 100 µM (inactive)

**Q.** And the GI50 (A498)?
**A.** > 100 µM (inactive)

**Q.** What about the GI50 (A549) of the same compound?
**A.** > 100 µM (inactive)

**Q.** And the GI50 (HOP-18)?
**A.** > 100 µM (inactive)

**Q.** And the GI50 (OVCAR-5)?
**A.** > 100 µM (inactive)

**Q.** What about the GI50 (XF498) of the same compound?
**A.** > 100 µM (inactive)

**Q.** What about the GI50 (UACC-62) of the same compound?
**A.** > 100 µM (inactive)

**Q.** And the GI50 (SNB-78)?
**A.** > 100 µM (inactive)

**Q.** What about the GI50 (SN12C) of the same compound?
**A.** > 100 µM (inactive)

**Q.** What about the GI50 (HOP-62) of the same compound?
**A.** > 100 µM (inactive)

**Q.** And the GI50 (RXF 393)?
**A.** > 100 µM (inactive)

**Q.** And the GI50 (UO-31)?
**A.** > 100 µM (inactive)

**Q.** And the GI50 (MOLT-4)?
**A.** > 100 µM (inactive)

**Q.** And the GI50 (SNB-19)?
**A.** > 100 µM (inactive)
